According to ChEMBL document CHEMBL5584343, “Cerastecin Inhibition of the Lipooligosaccharide Transporter MsbA to Combat Acinetobacter baumannii: From Screening Impurity to In Vivo Efficacy” (J Med Chem, 2024):
≈ marks a conversion by molar mass, not a printed value.

What was measured:
[1] = test system: Acinetobacter baumannii; assay: Antibacterial activity against Acinetobacter baumannii ATCC19606 assessed as bacterial growth inhibition incubated for 18 to 20 hrs by microbroth dilution method; type: functional; details: time 18-20 hrs
[2] = Inhibition of wildtype Acinetobacter baumannii MsbA preincubated for 30 mins followed by ATP addition and measured after 1 hrs by Transcreener ADP2 F1 assay
[3] = test system: Acinetobacter baumannii; assay: Selectivity ratio of MIC95 for antibacterial activity against Acinetobacter baumannii ATCC19606 in the presence of 1% human serum to MIC95 for antibacterial activity against Acinetobacter baumannii ATCC19606; type: functional
[4] = test system: Acinetobacter baumannii; assay: Antibacterial activity against Acinetobacter baumannii ATCC19606 incubated for 18 to 20 hrs in presence of 1% of human serum by microbroth dilution method; type: functional; details: time 18-20 hrs
[5] = Cytotoxicity against GFP fused human MT4 cells cultured under serum free condition for 24 hrs by CellTiter-Glo assay; type: toxicity, cell-based; details: GFP fused MT4 cells

Compound	MIC95 [1] [µM]	EC50 [2] [nM]	MIC95 [4] [µM]	Selectivity ratio [3]	EC50 at 24 h [5] [nM]
CCCCc1ccc(S(=O)(=O)Nc2ccc(NC(=O)CCC(=O)Nc3ccc(NS(=O)(=O)c4ccc(CCCC)nc4)c(C(=O)O)c3)cc2C(=O)O)cc1	0.196 (≈ 0.153 µg/mL)	64	12.5	64	–
CCCCc1ccc(S(=O)(=O)Nc2ccc(NC(=O)CCC(=O)Nc3ccc(N)c(C(=O)O)c3)cc2C(=O)O)cc1	> 200	> 66200	> 200	–	–
CCCCc1ccc(S(=O)(=O)Nc2ccc(NC(=O)CCC(=O)Nc3ccc(NS(=O)(=O)c4ccc(CCCC)cc4)c(S(=O)(=O)O)c3)cc2C(=O)O)cc1	0.196 (≈ 0.16 µg/mL)	37	12.5	64	–
CCCCc1ccc(S(=O)(=O)Nc2ccc(NC(=O)/C=C\C(=O)Nc3ccc(NS(=O)(=O)c4ccc(CCCC)cc4)c(C(=O)O)c3)cc2C(=O)O)cc1	0.277 (≈ 0.215 µg/mL)	27	8.84	32	–
CCCCc1ccc(S(=O)(=O)Nc2ccc(NC(=O)[C@H]3C[C@@H]3C(=O)Nc3ccc(NS(=O)(=O)c4ccc(CCCC)cc4)c(C(=O)O)c3)cc2C(=O)O)cc1 (racemic)	1.1 (≈ 0.874 µg/mL)	> 22100	> 200	>181	–
CCCCc1ccc(S(=O)(=O)Nc2ccc(NC(=O)CCC(=O)Nc3ccc(NS(=O)(=O)c4ccc(CCCC)cc4)c(C(=O)NC)c3)cc2C(=O)O)cc1	> 200	765	> 200	–	–
CCCCc1ccc(S(=O)(=O)Nc2ccc(NC(=O)CCC(=O)Nc3ccc(NS(=O)(=O)c4ccc(CCCC)cc4)c(P(=O)(O)O)c3)cc2C(=O)O)cc1	1.56 (≈ 1.27 µg/mL)	416	25	16	–
CCCCc1ccc(S(=O)(=O)Nc2ccc(NC(=O)CCC(=O)Nc3ccc(NS(=O)(=O)c4ccc(CCCC)cc4)c(C(=O)O)c3)cc2CO)cc1	6.25 (≈ 4.78 µg/mL)	1240	> 200	>32	–
CCCCc1ccc(S(=O)(=O)Nc2ccc(NC(=O)CCC(=O)Nc3ccc(NS(=O)(=O)c4ccc(CCCC)cc4)c(C(=O)O)c3)cc2C#N)cc1	> 200	1600	> 200	–	–
CCCCc1ccc(S(=O)(=O)Nc2ccc(NC(=O)CCC(=O)Nc3ccc(NS(=O)(=O)c4ccc(CCCC)cc4)c(C(=O)O)c3)cc2CC(=O)O)cc1	0.196 (≈ 0.155 µg/mL)	967	25	128	–
CCCCc1ccc(S(=O)(=O)Nc2ccc(NC(=O)CCC(=O)Nc3cccc(C(=O)O)c3)cc2C(=O)O)cc1	> 200	32400	> 200	–	–
CCCCc1ccc(S(=O)(=O)Nc2ccc(NC(=O)CCC(=O)Nc3ccc(NS(=O)(=O)c4ccc(CCCC)cc4)c(-c4nn[nH]n4)c3)cc2C(=O)O)cc1	0.553 (≈ 0.444 µg/mL)	291	25	45	–
CCCCc1ccc(S(=O)(=O)Nc2ccc(NC(=O)CCC(=O)Nc3ccc(N(C)S(=O)(=O)c4ccc(CCCC)cc4)c(C(=O)O)c3)cc2C(=O)O)cc1	1.11 (≈ 0.877 µg/mL)	456	50	45	–
CCCCc1ccc(S(=O)(=O)Nc2ccc(NC(=O)CCC(=O)Nc3ccc(NS(=O)(=O)c4ccc(CCCC)cc4)c(C(N)=O)c3)cc2C(N)=O)cc1	> 200	512	> 200	–	–
CCCCc1ccc(S(=O)(=O)Nc2ccc(CNCCC(=O)Nc3ccc(NS(=O)(=O)c4ccc(CCCC)cc4)c(C(=O)O)c3)cc2C(=O)O)cc1	0.277 (≈ 0.212 µg/mL)	308	1.56	5.6	–
CCCCc1ccc(S(=O)(=O)Nc2ccc(C(=O)NCCNC(=O)c3ccc(NS(=O)(=O)c4ccc(CCCC)cc4)c(C(=O)O)c3)cc2C(=O)O)cc1	> 200	> 198000	> 200	–	–
CCCCc1ccc(C(=O)Nc2ccc(NC(=O)CCC(=O)Nc3ccc(NS(=O)(=O)c4ccc(CCCC)cc4)c(C(=O)O)c3)cc2C(=O)O)cc1	> 200	> 198000	> 200	–	–

Continued, in another order:

MIC95 [1] [µM]	EC50 [2] [nM]	MIC95 [4] [µM]	Compound	Selectivity ratio [3]	EC50 at 24 h [5] [nM]
2.21 (≈ 1.73 µg/mL)	82	25	CCCCc1ccc(S(=O)(=O)Nc2ccc(NC(=O)CCC(=O)Nc3ccc(NS(=O)(=O)c4ccc(CCCC)nc4)c(C(=O)O)c3)cc2C(=O)O)cn1	11	–
0.391 (≈ 0.305 µg/mL)	124	12.5	CCCCc1ccc(S(=O)(=O)Nc2ccc(NC(=O)CCC(=O)Nc3ccc(NS(=O)(=O)c4ccc(CCCC)cc4)c(C(=O)O)c3)c(C(=O)O)c2)cc1	32	–
0.049 (≈ 0.0369 µg/mL)	5.4	12.5	CCCCc1ccc(S(=O)(=O)Nc2ccc(OCCCCOc3ccc(NS(=O)(=O)c4ccc(CCCC)cc4)c(C(=O)O)c3)cc2C(=O)O)cc1	255	9800
0.781 (≈ 0.574 µg/mL)	790	> 200	CCCCc1ccc(S(=O)(=O)Nc2ccc(NC(=O)CCC(=O)Nc3ccc(NS(=O)(=O)c4ccc(CCCC)cc4)c(C(=O)O)c3)cc2)cc1	>256	–
3.12 (≈ 2.34 µg/mL)	> 198000	25	CCCCc1ccc(S(=O)(=O)Nc2ccc(NC/C=C\CNc3ccc(NS(=O)(=O)c4ccc(CCCC)cc4)c(C(=O)O)c3)cc2C(=O)O)cc1	8	–
1.56 (≈ 1.26 µg/mL)	188	25	CCCCc1ccc(S(=O)(=O)Nc2ccc(NC(=O)CCC(=O)Nc3ccc(NS(=O)(=O)c4ccc(N5CCOCC5)nc4)c(C(=O)O)c3)cc2C(=O)O)cc1	16	–
> 200	1170	> 200	CCCCc1ccc(S(=O)(=O)Nc2ccc(NC(=O)CCC(=O)Nc3ccc(NS(=O)(=O)c4ccc(CCCC)cc4)c(C(=O)O)c3)cc2F)cc1	–	–
0.783 (≈ 0.588 µg/mL)	623	12.5	CCCCc1ccc(S(=O)(=O)Nc2ccc(NCCCCNc3ccc(NS(=O)(=O)c4ccc(CCCC)cc4)c(C(=O)O)c3)cc2C(=O)O)cc1	16	–
1.56 (≈ 1.18 µg/mL)	92	25	CCCCc1ccc(S(=O)(=O)Nc2ccc(NC(=O)CCC(=O)Nc3ccc(NS(=O)(=O)c4ccc(OC)nc4)c(C(=O)O)c3)cc2C(=O)O)cc1	16	–
0.098 (≈ 0.0865 µg/mL)	< 10	1.56	Cc1c(S(=O)(=O)Nc2ccc(NC(=O)CCCOc3ccc(NS(=O)(=O)c4cnn(-c5ccc(Cl)cc5)c4C)c(C(=O)O)c3)cc2C(=O)O)cnn1-c1ccc(Cl)cc1	16	900
> 200	> 198000	> 200	CCCCc1ccc(S(=O)(=O)Nc2ccc(NC(=O)CCC(=O)Nc3ccc(NS(=O)(=O)c4ccc(CCCC)cc4)c(C(=O)OCC)c3)cc2C(=O)OCC)cc1	–	–
0.012 (≈ 0.00982 µg/mL)	< 10	3.12	O=C(CCCOc1ccc(NS(=O)(=O)c2ccc(-c3ccccc3)s2)c(C(=O)O)c1)Nc1ccc(NS(=O)(=O)c2ccc(-c3ccccc3)s2)c(C(=O)O)c1	260	> 42000
0.069 (≈ 0.0528 µg/mL)	16	6.25	CCCCc1ccc(S(=O)(=O)Nc2ccc(NC(=O)CCCOc3ccc(NS(=O)(=O)c4ccc(CCCC)cc4)c(C(=O)O)c3)cc2C(=O)O)cc1	91	–
0.196 (≈ 0.167 µg/mL)	136	6.25	O=C(CCC(=O)Nc1ccc(NS(=O)(=O)c2ccc(Oc3ccccc3)nc2)c(C(=O)O)c1)Nc1ccc(NS(=O)(=O)c2ccc(Oc3ccccc3)nc2)c(C(=O)O)c1	32	–
> 200	> 198000	> 200	CCCCc1ccc(S(=O)(=O)N(C)c2ccc(NC(=O)CCC(=O)Nc3ccc(N(C)S(=O)(=O)c4ccc(CCCC)cc4)c(C(=O)O)c3)cc2C(=O)O)cc1	–	–
100 (≈ 66.1 µg/mL)	6400	200	CCCCc1ccc(S(=O)(=O)Nc2ccc(NC(=O)CCC(=O)Nc3ccc(NS(C)(=O)=O)c(C(=O)O)c3)cc2C(=O)O)cc1	2	–
0.112 (≈ 0.0872 µg/mL)	83	11.3	CCCCc1ccc(S(=O)(=O)Nc2ccc(NC(=O)CCNC(=O)c3ccc(NS(=O)(=O)c4ccc(CCCC)cc4)c(C(=O)O)c3)cc2C(=O)O)cc1	101	–
0.069 (≈ 0.0563 µg/mL)	47	4.42	CCCCc1ccc(S(=O)(=O)Nc2ccc(NC(=O)CCC(=O)Nc3ccc(NS(=O)(=O)c4ccc(Oc5ccccc5)nc4)c(C(=O)O)c3)cc2C(=O)O)cc1	64	–
1.56 (≈ 1.17 µg/mL)	626	25	CCCCc1ccc(S(=O)(=O)Nc2ccc(NC(=O)CCC(=O)Nc3ccc(NS(=O)(=O)c4ccc(CCCC)cc4)c(C(=O)O)c3)cc2O)cc1	16	–
> 200	> 198000	> 200	CCCCc1ccc(S(=O)(=O)Nc2ccc(N(C)C(=O)CCC(=O)N(C)c3ccc(NS(=O)(=O)c4ccc(CCCC)cc4)c(C(=O)O)c3)cc2C(=O)O)cc1	–	–
0.783 (≈ 0.61 µg/mL)	597	25	CCCCc1ccc(NS(=O)(=O)c2ccc(NC(=O)CCC(=O)Nc3ccc(NS(=O)(=O)c4ccc(CCCC)cc4)c(C(=O)O)c3)cc2C(=O)O)cc1	32	–
0.782 (≈ 0.565 µg/mL)	311	12.5	CCCCc1ccc(S(=O)(=O)Nc2ccc(NC(=O)CCC(=O)Nc3ccc(NS(=O)(=O)c4ccccc4)c(C(=O)O)c3)cc2C(=O)O)cc1	16	–
25 (≈ 19.5 µg/mL)	1790	200	CCCCc1ccc(S(=O)(=O)Nc2ccc(NC(=O)CCC(=O)Nc3ccc(NS(=O)(=O)c4ccc(CCCC)cn4)c(C(=O)O)c3)cc2C(=O)O)nc1	8	–
